Patent US20240238368A1, “PEPTIDE FOR PREVENTING AND TREATING FIBROSIS” (NIBEC CO., LTD., priority 2021, published 2024)

Columns and labels:
[1] = tested on: bleomycin-induced lung disease; details: bleomycin mice; for fibrous deposition in the lungs (Sirius Red and hematoxylin/phloxine staining) / area of fibrosis (Sirius Red): day 22; for fibrous deposition in the lungs (Sirius Red and hematoxylin/phloxine staining): peptides 30 mg/kg subcutaneously three times a week compared to NT and nintedanib groups, FIG. 8c; for area of fibrosis (Sirius Red): compared to NT group and nintedanib-treated group, P<0.05, FIG. 8d
Procedure: C57BL/6J mice (male, 7 weeks old) were purchased from Charles River. Mice were anesthetized by intraperitoneal administration of a mixture of Imalgene (ketamine, 100 mg/kg)/Rompun (xylazine, 20 mg/kg), and a total of 50 μl of bleomycin sulfate (1.45 mg/kg, MBcell, CA, USA) was injected intratracheally once, and saline was injected intratracheally in the normal group (day 0). On day 7, mice were divided into groups, each consisting of eight. PBS (NT), SEQ ID NO: 1 (30 mg/kg), and SEQ ID NO: 2 (30 mg/kg) were administered subcutaneously three times a week, and nintedanib (Fluorochem Ref=050741, 100 mg/kg) was administered orally daily. Each of the peptides of SEQ ID NO: 1 and SEQ ID NO: 2 was administered after dissolution in water for injection, and nintedanib was administered after mixing with water containing 0.5% hydroxyethylcellulose (Sigma; lot BCBV5033) and 0.01% Tween 80 (Sigma; lot BCBR6211V). While administering the drug for 21 days, body weight was measured every 2 days, and whether there were other clinical symptoms were checked.
After mice were sacrificed with isoflurane on day 22, lung tissue was excised therefrom and histological analysis was performed. Paraffin was introduced into the lungs, 5 μm paraffin sections were manufactured, Sirius Red staining and hematoxylin/phloxine staining were performed to evaluate the extent of pulmonary fibrosis and inflammation, and the extent of inflammation and fibrosis was observed through microscopy.
In order to quantify the fibrotic change, the area of the red (fibrotic portion) was quantified in the sample stained with Sirius Red.

[2] = target: T1, pSmad3 (Homo sapiens, UniProt P84022); test: Inhibition of phosphorylation of Smad3 (Western blotting); type: cell-based; details: LX-2 cells, 10 ng/ml TGF-β1 24 hours, then peptide 10, 100 or 200 μM 24 hours; effect from 10 μM; FIG. 5
T1 construct: LX-2 (Human hepatic stellate cell line, Millipore #SCC064); host or cells: LX-2 human hepatic stellate cell line
T1 sequence (P84022 whole entry): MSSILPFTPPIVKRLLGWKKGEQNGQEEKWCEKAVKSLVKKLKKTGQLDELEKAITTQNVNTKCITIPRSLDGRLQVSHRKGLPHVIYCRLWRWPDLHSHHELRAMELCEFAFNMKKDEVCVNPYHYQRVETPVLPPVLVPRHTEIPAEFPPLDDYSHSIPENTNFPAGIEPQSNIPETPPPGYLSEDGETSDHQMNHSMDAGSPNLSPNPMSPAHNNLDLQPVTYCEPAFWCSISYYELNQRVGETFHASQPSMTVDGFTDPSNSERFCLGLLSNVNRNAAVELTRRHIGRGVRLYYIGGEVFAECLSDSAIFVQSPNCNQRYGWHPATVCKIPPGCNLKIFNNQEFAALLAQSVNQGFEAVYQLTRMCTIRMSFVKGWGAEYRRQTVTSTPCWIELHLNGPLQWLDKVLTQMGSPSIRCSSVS
Procedure: (§1) 3×10^6 LX-2 cells were treated with 10 ng/ml TGF-β1 and cultured for 24 hours. The cells were treated with 10, 100, or 200 μM of the peptide of SEQ ID NO: 2 or 10 µM SIS3 (Smad3 inhibitor, Sigma-Aldrich, catalog #566405) in fresh medium and cultured for 24 hours.
(§2) Proteins were lysed using RIPA lysis buffer (25 mM Tris HCl pH 7.6, 150 mM NaCl, 1% NP-40, 1% sodium deoxycholate, 0.1% SDS) containing a protease inhibitor and a phosphatase inhibitor. Proteins were quantified by BCA protein assay, and the expression levels of pSmad2, Smad2, pSmad3, Smad3, TGFβ receptor 1, and GAPDH proteins were determined by Western blotting. For Western blotting, the sample was loaded in the same amount along with a size marker on an 8% SDS PAGE gel, electrophoresed for about 2 hours, and then transferred to a nitrocellulose membrane. The transferred membrane was blocked with 5% skim milk for 1 hour, and allowed to react with primary antibodies at a ratio of 1:1000 overnight. The primary antibodies used were pSmad2 (Cell Signaling, #3108), Smad2 (Cell Signaling, #5339), pSmad3 (Abcam, ab52903), Smad3 (Cell Signaling, #9513), TGFβ receptor1 (Abcam, ab31013), and GAPDH (Cell Signaling, #2118S). […]

[3] = tested on: MET markers (E-cadherin, EpCAM) and EMT markers (N-cadherin, Twist1, Snail1); test: Reprogramming effects in cells: MET and EMT marker gene expression (real-time PCR); type: cell-based, human; details: LX-2 cells, 10 ng/ml TGF-beta1 and 100 μM peptide, 24 hours; FIG. 7
Procedure: The medium was removed, followed by washing with DPBS (Welgene, LB001-02) and cell lysis using 1 ml of a trizol reagent (Ambion, 15596). 250 μl of chloroform was added thereto, the tube was stirred, and centrifugation was performed at 10,000 rpm for 15 minutes. After removing the aqueous layer using a pipette, 550 μl of isopropanol (Sigma, 19516) was added and shaken gently. After centrifugation at 15,000 rpm for 25 minutes, isopropanol was removed, and 1 ml of 75% ethanol was added thereto. After removal of ethanol and drying in air, the pellets were dissolved in DEPC water (Invitrogen, AM9915G). The concentration of RNA was measured using a Nano Drop (Thermo Scientific, NanoDrop One, AZY1913798).
(§3) CDNA was synthesized from the extracted RNA using a Maxima First strand CDNA synthesis kit (Thermo Fisher, K1641) according to the manufacturer's protocol. In addition, real-time PCR was performed using QuantStudio 3 (Applied Biosystems, A28132) according to the manufacturer's protocol. PCR amplification was conducted by repeating 40 cycles at 95° C. for 15 seconds, 60° C. for 50 seconds, and 72° C. for 15 seconds.

[4] = tested on: methionine-choline-deficient (MCD) diet-induced hepatitis and hepatic fibrosis; test: Methionine-choline-deficient diet mouse model (hepatitis and hepatic fibrosis); type: in vivo, C57BL/6J mice; details: MCD diet mice, peptide 20 mg/kg, 12 administrations at 3-day intervals, compared to NT group or GLP-1 agonist (liraglutide 0.2 mg/kg) group; for NAFLD activity score: FIGS. 9b, 9c; for area of fibrosis (Masson's trichrome-positive area): FIGS. 9d, 9e
Procedure: Male 6-week-old C57BL/6J mice were used, and divided into a normal diet group, a group not treated after feeding MCD diet, groups injected with the peptide of SEQ ID NO: 1 (20 mg/kg) and the peptide of SEQ ID NO: 2 (20 mg/kg), and a positive control group subcutaneously injected with liraglutide (0.2 mg/kg), which is a type of glucagon-like peptide 1 receptor agonist serving as a hepatitis therapeutic agent. After autonomous feeding of MCD diet for 10 weeks, 8 mice were assigned to each group and a therapeutic agent was administered thereto. Peptide and liraglutide were administered once a day, a total of 12 times at 3-day intervals (FIG. 9a). For all animals, body weight was measured immediately before initiation of administration and twice a week throughout the entire test. After the end of the last administration, the animals was anesthetized by intraperitoneal injection of 300 μl of Avertin, blood was collected from the abdominal vena cava by laparotomy, the liver and spleen were removed therefrom, and the weight of the removed organs was measured. Tissues were fixed in a neutral buffered formalin solution for all animals subjected to necropsy, and paraffin blocks were manufactured and sectioned through tissue processing. The tissue sections thus obtained were subjected to H&E staining. The H&E stained specimens were scored for steatosis, ballooning degeneration, and lobular inflammation (Table 3), and the extent of hepatic inflammation (NAFLD activity score) was measured. The tissue sections manufactured in the same manner as in Example 8-2 were stained with Masson's trichrome, and 100× magnification images were obtained with an optical microscope (BX51, Olympus, GER) at 5 randomly designated different sites among all Masson's trichrome-stained slides (300MI CMOS camera, […]). The blue-stained […] was measured (Image-Pro Plus, Media Cybernetics Inc., UK) and analyzed as a percentage (Masson's trichrome-positive area […]).

[5] = target: T2, pSmad2 (Homo sapiens, UniProt Q15796); test: Inhibition of phosphorylation of Smad2 (Western blotting); type: cell-based; details: LX-2 cells, 10 ng/ml TGF-β1 24 hours, then peptide 10, 100 or 200 μM 24 hours; FIG. 5
T2 construct: LX-2 (Human hepatic stellate cell line, Millipore #SCC064); host or cells: LX-2 human hepatic stellate cell line
T2 sequence (Q15796 whole entry): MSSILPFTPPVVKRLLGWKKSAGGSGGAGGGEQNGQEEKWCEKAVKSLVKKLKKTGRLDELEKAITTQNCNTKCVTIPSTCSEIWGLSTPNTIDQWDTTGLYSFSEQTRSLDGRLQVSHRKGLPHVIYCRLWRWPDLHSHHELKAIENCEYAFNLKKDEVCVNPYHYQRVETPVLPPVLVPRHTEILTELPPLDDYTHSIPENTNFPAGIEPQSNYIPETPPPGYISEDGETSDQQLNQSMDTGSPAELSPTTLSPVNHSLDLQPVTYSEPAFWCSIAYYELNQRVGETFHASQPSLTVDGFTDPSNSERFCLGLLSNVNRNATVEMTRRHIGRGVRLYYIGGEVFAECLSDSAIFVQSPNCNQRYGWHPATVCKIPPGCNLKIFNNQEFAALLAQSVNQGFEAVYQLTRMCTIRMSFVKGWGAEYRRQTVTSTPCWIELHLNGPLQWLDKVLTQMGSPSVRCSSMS
Procedure: as §1, §2

[6] = tested on: COL1A2 and COL3A1 gene expression; test: Inhibition of collagen gene expression in cells (real-time PCR); type: cell-based, human; details: IPF patient lung fibroblasts, 10 ng/ml TGF-β1 24 hours, then peptide 200 μM 24 hours; *p<0.05; FIG. 6
Procedure: The cells were seeded in a 24-well plate and cultured in starvation medium (Dulbecco's modified Eagle medium/F12 without FBS supplemented with 0.1 mM 2-phospho-L-ascorbic acid) for 24 hours. Recombinant Human TGF-β1 Protein (R&D Systems, #240-B-002) was diluted at 20 μg/ml in sterile 4 mM HCl containing 1 mg/ml bovine serum albumin. The cells were cultured for 24 hours in full growth media containing 10 ng/ml TGF-β1. The cells were treated with SEQ ID NO: 1 (200 μM), SEQ ID NO: 2 (200 μM), or nintedanib (10 μM) in fresh medium and cultured for 24 hours. The peptides were dissolved in purified water, nintedanib was dissolved in dimethyl sulfoxide, and the concentration of dimethyl sulfoxide in medium was set to 1%. The medium was removed, followed by washing with DPBS (Welgene, LB001-02) and cell lysis using 1 ml of a trizol reagent (Ambion, 15596). 250 μl of chloroform was added thereto, the tube was stirred, and centrifugation was performed at 10,000 rpm for 15 minutes. After removing the aqueous layer using a pipette, 550 μl of isopropanol (Sigma, 19516) was added and shaken gently. After centrifugation at 15,000 rpm for 25 minutes, isopropanol was removed, and 1 ml of 75% ethanol was added thereto. After removal of ethanol and drying in air, the pellets were dissolved in DEPC water (Invitrogen, AM9915G). The concentration of RNA was measured using a Nano Drop (Thermo Scientific, NanoDrop One, AZY1913798).
as §3, with “50” for “40”, “30” for “15”, “30” for “50”

[7] = tested on: TGFβ receptor 1; test: TGFβ receptor expression level (Western blotting); type: cell-based, human; details: LX-2 cells, 10 ng/ml TGF-β1 24 hours, then peptide 10, 100 or 200 μM 24 hours; FIG. 5
Procedure: as §1, §2

[8] = nintedanib 100 mg/kg orally daily
[9] = peptides 30 mg/kg subcutaneously three times a week

| Compound | change in body weight after treatment ([1]; day 0 to day 22, treatment from day 7, peptides 30 mg/kg subcutaneously three times a week, nintedanib 100 mg/kg orally daily, FIG. 8b) | fibrous deposition in the lungs (Sirius Red and hematoxylin/phloxine staining) [1, 8] | expression of pSmad3 [2] | gene expression of E-cadherin (MET marker) [3] | gene expression of EpCAM (MET marker) [3] | gene expression of N-cadherin (EMT marker) [3] | gene expression of Snail1 (EMT marker) [3] | gene expression of Twist1 (EMT marker) [3] | area of fibrosis (Sirius Red) [1, 9] | NAFLD activity score [4] | area of fibrosis (Masson's trichrome-positive area) [4] | expression of pSmad2 [5] | COL1A2 gene expression [6] | COL3A1 gene expression [6] | expression level of the TGFβ receptor [7] |
| --- | --- | --- | --- | --- | --- | --- | --- | --- | --- | --- | --- | --- | --- | --- | --- |
| COC(=O)c1ccc2c(c1)NC(=O)/C2=C(\Nc1ccc(N(C)C(=O)CN2CCN(C)CC2)cc1)c1ccccc1 [nintedanib, reference compound] | increased | some therapeutic effect, but a lot of deposited fibrous tissue was still observed |  |  |  |  |  |  |  |  |  |  |  |  |  |
| GKCSTRGRKSSRRKK [SEQ ID NO: 2] |  | significantly reduce fibrosis | completely disappeared | increased | increased | decreased | decreased | decreased | significant reduction | significantly reduced | significantly reduce | decreased with an increase in the concentration | significantly reduced | significantly reduced | no change |
| YGLRSKSKKFRRPDIQYPDAT [SEQ ID NO: 1] |  | significantly reduce fibrosis |  |  |  |  |  |  | significant reduction | significantly reduced | significantly reduce |  | significantly reduced | significantly reduced |  |
